pIC50: −log10 of the molar value. Where two headings read alike, the source gives them in different places.
Assays:
Artemia salina = Artemia salina lethal toxicity assay; format: in vivo; settings: Artemia salina nauplii; quality control
Description: Artemia salina was used for in vivo general toxicity assessment of the promising hybrids IVb, IVd, and IIf; the results are shown in Table 4 and Figure 7. K2Cr2O7 was used as a control. Hybrid IVd presented the lowest toxicity.
The ARTOXKIT M protocol was used. The percentage of dyed nauplii of Artemia salina, grown in the presence of variable concentrations of the inhibitor compounds, was measured to determine the LC50 values. A test with K2Cr2O7 was used for quality control.

eeAChE = biological target: T1, eeAChE (Electrophorus electricus, UniProt O42275); test: Ellman cholinesterase inhibitory assay, eeAChE screening; format: biochemical; settings: compound 100 µM; substrate 3 mM
T1 construct: catalogue number not given
T1 sequence (O42275 24-633): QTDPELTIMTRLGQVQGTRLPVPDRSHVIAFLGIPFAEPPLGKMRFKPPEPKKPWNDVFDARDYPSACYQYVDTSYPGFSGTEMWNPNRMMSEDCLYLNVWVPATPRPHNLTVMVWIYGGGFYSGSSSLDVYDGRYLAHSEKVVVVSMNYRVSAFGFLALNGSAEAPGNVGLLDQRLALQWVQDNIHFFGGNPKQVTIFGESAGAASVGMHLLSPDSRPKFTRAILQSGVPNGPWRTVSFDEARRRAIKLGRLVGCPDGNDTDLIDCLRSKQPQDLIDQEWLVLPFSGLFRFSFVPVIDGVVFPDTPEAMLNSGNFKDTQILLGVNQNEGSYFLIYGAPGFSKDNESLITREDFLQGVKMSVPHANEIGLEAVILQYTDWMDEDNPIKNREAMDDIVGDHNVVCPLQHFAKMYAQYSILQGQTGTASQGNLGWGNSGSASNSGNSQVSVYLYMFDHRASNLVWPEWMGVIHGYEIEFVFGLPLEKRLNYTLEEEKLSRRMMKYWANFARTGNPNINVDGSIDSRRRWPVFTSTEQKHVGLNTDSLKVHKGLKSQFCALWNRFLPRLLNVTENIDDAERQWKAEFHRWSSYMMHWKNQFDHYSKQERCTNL
Description: (§1) Firstly, the inhibitory activity of the quercetin-1,2,3-triazole hybrids I–IV was screened in vitro on eeAChE and eqBuChE at a concentration of 100 μM (these enzymes are considered as models of the human isoform). The ChE inhibitory activity of all compounds was evaluated using the method of Ellman.
(§2) The inhibitory activities of title compounds against commercially available cholinesterases (eeAChE) (Electrophorus electricus, Type V-S), eqBuChE (equine serum), were conducted using minor modifications of Ellman’s assay. Nine different concentrations ([…], 37.5, 75, 150, and 300 μM in H2O:DMSO (50:50)) of each test compound were used to determine the enzyme-inhibition activity. Briefly, 55 μL of 50 mM Tris-HCl buffer at pH 8, 25 μL of eqBuChE (0.03 U/mL), 20 μL of the test or standard compounds, and 125 μL of DTNB (0.8 mM) were incubated in 96-well plates at 37 °C for 15 min. Further, 25 μL of the substrate, BTCI (0.8 mM), was added, and the solution was incubated for additional 15 min. Finally, the absorbance was measured at 412 nm wavelength using a Microplate Spectrophotometry (TriStar® S LB 942 model instrument). The IC50 values were determined from the absorbance obtained for various concentrations of the test and the standard compounds. All determinations were performed in triplicate.
(§3) To determine the % of inhibition ([I] = 100 μM), the substrate concentration (acetylthiocholine iodide for AChE; S-butyrylthiocholine iodide for BuChE) was fixed at 3 mM.

eqBuChE = biological target: T2, eqBuChE (Equus caballus, UniProt P81908); test: Ellman cholinesterase inhibitory assay, eqBuChE (screening and IC50); format: biochemical; settings: for inhibition at 100 µM: compound 100 µM, substrate 3 mM
T2 construct: equine serum butyrylcholinesterase (eqBuChE); purchased Sigma-Aldrich (lyophilized powder, 10.9 U/mg); host or cells: equine serum
T2 sequence (P81908 whole entry): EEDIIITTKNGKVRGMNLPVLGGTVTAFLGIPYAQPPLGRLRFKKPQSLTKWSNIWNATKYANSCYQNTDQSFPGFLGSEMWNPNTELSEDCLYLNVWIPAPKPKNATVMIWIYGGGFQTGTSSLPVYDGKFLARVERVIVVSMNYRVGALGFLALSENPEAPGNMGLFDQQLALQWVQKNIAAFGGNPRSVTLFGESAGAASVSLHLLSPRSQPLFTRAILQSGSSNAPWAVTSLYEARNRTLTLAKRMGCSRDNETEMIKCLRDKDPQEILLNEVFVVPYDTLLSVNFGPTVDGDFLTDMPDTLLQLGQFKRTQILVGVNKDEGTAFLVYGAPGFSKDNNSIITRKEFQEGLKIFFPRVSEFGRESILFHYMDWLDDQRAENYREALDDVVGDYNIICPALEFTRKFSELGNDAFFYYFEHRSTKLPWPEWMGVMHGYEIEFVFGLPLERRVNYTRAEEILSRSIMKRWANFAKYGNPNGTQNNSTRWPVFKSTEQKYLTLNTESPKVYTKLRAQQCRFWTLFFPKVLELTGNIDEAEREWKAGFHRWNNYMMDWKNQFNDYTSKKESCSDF
Description: as §1, §2, §3

[1] = DPPH radical scavenging antioxidant assay; settings: 100 μg/mL
Description: To assess the antioxidant activity of hybrids IVa–e, IIf and quercetin, the 2,2-diphenyl-1-[…] (DPPH) radical scavenging colorimetric method was used, which is one of the most widely used methods for determining antioxidant activity. In this method, antioxidants react with DPPH (which has a strong violet color) and convert it into yellow diphenylpicrylhydrazine. Compounds were assayed in the range of concentrations from 3 to 200 μg/mL. Ascorbic acid was used as positive control. […] Another piece of evidence is the similarity between the % inhibition values of hybrids IVa,b and IVd,e and quercetin.
The colorimetric DPPH assay was carried out as described in [33]. […] In brief, 30 μL of a test compound (in MeOH) was mixed with 200 μL of DPPH (100 μM in methanol) in a 96-well plate in triplicate. After 30 min incubation at room temperature in the absence of light, the absorbances were measured at 517 nm using Microplate Spectrophotometry (TriStar® S LB 942 model instrument). The free radical scavenging activity results are expressed as a percentage of DPPH inhibition according to the following formula:
% of Inhibition = 100[(A(Blank) − A(sample))/A(blank)], where A(blank) consists of methanol (30 μL) mixed with DPPH (200 μL) absorbance, and A(sample) is the absorbance value for the added sample concentration compound mixed with DPPH. Ascorbic acid was used as a positive control.

MCF-7 cells = test: Protective assay against hydrogen peroxide-induced oxidative stress in MCF-7 cells; format: cell-based, Human; settings: 100 µM H2O2, 2 h
Description: Given the importance of oxidative stress-induced apoptosis of neuronal cells in AD, we present here a study to investigate the effect of quercetin-1,2,3-triazole hybrids on H2O2-induced oxidative damage in cultured MCF-7 cells, used as a human cell model. Viability was assessed with the WST-1 test in the absence and in the presence of an oxidative stressor (10^−4 M H2O2).
MCF-7 (Human breast adenocarcinoma (MERCK—# 86012803-DNA-5UG), Database Name: ECACC collection, Accession Numbers: 86012803) was the cell line elected as a cell injury model for the study of the potential protective effect of the butyrylcholinesterase inhibitors (hybrids) against hydrogen peroxide-induced oxidative stress. Cytotoxicity of the hybrids was also evaluated.
The culture medium was subsequently replaced with different final concentrations (6.25–50 μM) of the compounds to be tested. Negative controls were prepared, incubating cells in culture media.
Parallel experiments were performed for cytotoxicity assessment and for protective effect against hydrogen peroxide-induced oxidative stress evaluation. First, 10 μL of PBS was added in the designated wells; second, 10 μL of H2O2 (reaching a final concentration of 100 µM) was added. Following a 2 h incubation period at 37 °C in 5% CO2 atmosphere incubator, cellular viability was measured by adding WST-1 dehydrogenases substrate and incubating for 1 h, and the amount of formazan dye produced was evaluated by measuring the absorbance at 440 nm.

[2] = concentration range 1.2-300 µM, BTCI 0.8 mM, read-out: IC50 values for eqBuChE

SMILES	LC50 (Artemia salina) [µg/mL]	inhibition at 100 µM (eeAChE) [%]	inhibition at 100 µM (eqBuChE) [%]	pIC50 (eqBuChE; [2])	DPPH antioxidant activity [1]	pIC50 (eqBuChE)	cellular antioxidant protection against H2O2 (MCF-7 cells)
[K+].[K+].[O]=[Cr](=[O])([O-])[O][Cr](=[O])(=[O])[O-] [Hybrid K2Cr2O7, K2Cr2O7, reference compound]	22.7	–	–	–	–	–	–
O=c1c(OCCCCn2cc(-c3ccccc3)nn2)c(-c2ccc(OCc3ccccc3)c(OCc3ccccc3)c2)oc2cc(OCc3ccccc3)cc(OCc3ccccc3)c12 [IIIa, 5,7-Bis(benzyloxy)-2-(3,4-bis(benzyloxy)phenyl)-3-(4-(4-phenyl-1H-1,2,3-triazol-1-yl)butoxy)-4H-chromen-4-one]	–	40.6	46.9	–	–	–	–
O=c1c(OCCCCn2cc(C3(O)CCCC3)nn2)c(-c2ccc(OCc3ccccc3)c(OCc3ccccc3)c2)oc2cc(OCc3ccccc3)cc(OCc3ccccc3)c12 [IIIc, 5,7-Bis(benzyloxy)-2-(3,4-bis(benzyloxy)phenyl)-3-(4-(4-(1-hydroxycyclopentyl)-1H-1,2,3-triazol-1-yl)butoxy)-4H-chromen-4-one]	–	17.2	26.9	–	–	–	–
CC(C)(O)c1cn(CCCCOc2c(-c3ccc(OCc4ccccc4)c(OCc4ccccc4)c3)oc3cc(OCc4ccccc4)cc(OCc4ccccc4)c3c2=O)nn1 [IIId, 5,7-Bis(benzyloxy)-2-(3,4-bis(benzyloxy)phenyl)-3-(4-(4-(2-hydroxypropan-2-yl)-1H-1,2,3-triazol-1-yl)butoxy)-4H-chromen-4-one]	–	15.1	27.3	–	–	–	–
O=C1C(=O)N(Cc2cn(CCCCOc3c(-c4ccc(OCc5ccccc5)c(OCc5ccccc5)c4)oc4cc(OCc5ccccc5)cc(OCc5ccccc5)c4c3=O)nn2)c2ccccc21 [IIIf, 1-((1-(4-((5,7-Bis(benzyloxy)-2-(3,4-bis(benzyloxy)phenyl)-4-oxo-4H-chromen-3-yl)oxy)butyl)-1H-1,2,3-triazol-4-yl)methyl)indoline-2,3-dione]	–	0	34.5	–	–	–	–
COc1cc(OC)c2c(=O)c(OCCCCn3cc(-c4ccccc4)nn3)c(-c3ccc(OC)c(OC)c3)oc2c1 [IIa, 2-(3,4-Dimethoxyphenyl)-5,7-dimethoxy-3-(4-(4-phenyl-1H-1,2,3-triazol-1-yl)butoxy)-4H-chromen-4-one]	–	7.75	55.3	< 3.52	–	–	–
COc1cc(OC)c2c(=O)c(OCCCCn3cc(C4CC4)nn3)c(-c3ccc(OC)c(OC)c3)oc2c1 [IIb, 2-(3,4-Dimethoxyphenyl)-3-(4-(4-cyclopropyl-1H-1,2,3-triazol-1-yl)butoxy)-5,7-dimethoxy-4H-chromen-4-one]	–	0	54.4	< 3.52	–	–	–
COc1cc(OC)c2c(=O)c(OCCCCn3cc(C4(O)CCCC4)nn3)c(-c3ccc(OC)c(OC)c3)oc2c1 [IIc, 2-(3,4-Dimethoxyphenyl)-3-(4-(4-(1-hydroxycyclopentyl)-1H-1,2,3-triazol-1-yl)butoxy)-5,7-dimethoxy-4H-chromen-4-one]	–	0	69.6	< 3.52	–	–	–
COc1cc(OC)c2c(=O)c(OCCCCn3cc(C(C)(C)O)nn3)c(-c3ccc(OC)c(OC)c3)oc2c1 [IId, 2-(3,4-Dimethoxyphenyl)-3-(4-(4-(2-hydroxypropan-2-yl)-1H-1,2,3-triazol-1-yl)butoxy)-5,7-dimethoxy-4H-chromen-4-one]	–	0	60.6	< 3.52	–	–	–
COc1cc(OC)c2c(=O)c(OCCCCn3cc(COc4cc(C)ccc4C(C)C)nn3)c(-c3ccc(OC)c(OC)c3)oc2c1 [IIe, 2-(3,4-Dimethoxyphenyl)-3-(4-(4-((2-isopropyl-5-methylphenoxy)methyl)-1H-1,2,3-triazol-1-yl)butoxy)-5,7-dimethoxy-4H-chromen-4-one]	–	4.13	81.7	4.58	–	–	–
COc1cc(OC)c2c(=O)c(OCCCCn3cc(CO)nn3)c(-c3ccc(OC)c(OC)c3)oc2c1 [IIg, 2-(3,4-Dimethoxyphenyl)-3-(4-(4-(hydroxymethyl)-1H-1,2,3-triazol-1-yl)butoxy)-5,7-dimethoxy-4H-chromen-4-one]	–	0	53.8	< 3.52	–	–	–
CCCc1cn(CCCCOc2c(-c3ccc(OC)c(OC)c3)oc3cc(OC)cc(OC)c3c2=O)nn1 [IIh, 2-(3,4-Dimethoxyphenyl)-5,7-dimethoxy-3-(4-(4-propyl-1H-1,2,3-triazol-1-yl)butoxy)-4H-chromen-4-one]	–	38.6	7.97	< 3.52	–	–	–
COc1cc(OC)c2c(=O)c(OCCCCn3cc(C(C)(C)N)nn3)c(-c3ccc(OC)c(OC)c3)oc2c1 [IIi, 3-(4-(4-(2-Aminopropan-2-yl)-1H-1,2,3-triazol-1-yl)butoxy)-2-(3,4-dimethoxyphenyl)-5,7-dimethoxy-4H-chromen-4-one]	–	0	74.4	4.15	–	–	–
O=c1c(OCCCCn2cc(C3(O)CCCC3)nn2)c(-c2ccc(O)c(O)c2)oc2cc(O)cc(O)c12 [IVc, 2-(3,4-Dihydroxyphenyl)-5,7-dihydroxy-3-(4-(4-(1-hydroxycyclopentyl)-1H-1,2,3-triazol-1-yl)butoxy)-4H-chromen-4-one]	–	21.6	69.9	4.18	–	–	–
Cc1ccc(C(C)C)c(OCc2cn(CCCCOc3c(-c4ccc(O)c(O)c4)oc4cc(O)cc(O)c4c3=O)nn2)c1 [IVe, 2-(3,4-Dihydroxyphenyl)-5,7-dihydroxy-3-(4-(4-((2-isopropyl-5-methylphenoxy)methyl)-1H-1,2,3-triazol-1-yl)butoxy)-4H-chromen-4-one]	–	29.1	63.4	< 3.82	potent antioxidant activity	–	–
COc1cc(OC)c2c(=O)c(OCc3cn(Cc4ccccc4)nn3)c(-c3ccc(OC)c(OC)c3)oc2c1 [Ia, 3-((1-Benzyl-1H-1,2,3-triazol-4-yl)methoxy)-2-(3,4-dimethoxyphenyl)-5,7-dimethoxy-4H-chromen-4-one]	–	0	54.4	–	–	–	–
COc1cc(OC)c2c(=O)c(OCc3cn(Cc4cccc(Cl)c4)nn3)c(-c3ccc(OC)c(OC)c3)oc2c1 [Ib, 3-((1-(3-Chlorobenzyl)-1H-1,2,3-triazol-4-yl)methoxy)-2-(3,4-dimethoxyphenyl)-5,7-dimethoxy-4H-chromen-4-one]	–	0	63.3	–	–	–	–
O=c1c(O)c(-c2ccc(O)c(O)c2)oc2cc(O)cc(O)c12 [Quercetin]	–	8.18	100	–	–	4.74	low capacity in cellular protection
